Test results reported in patent publication US4061862A, “Derivatives of 7-(cyclized)phenylglycyl-3-triazolo-thio methyl cephalosporin” (priority 1976, dated 1977).
Like-named read-outs stand apart in the source and are kept apart here.

Key:
[1] = Loss of bioactivity on storage at elevated temperatures; assay type: physicochemical
Protocol: h. Loss of bioactivity on storage at elevated temperatures: 100° C., 24 hours = <6%; 48 hours = <12%; 56° C., 1 month = <10%.

[2] = Bio-assay (mcg./mg.)
Protocol: 7-[D-α-amino-α-(p-hydroxyphenyl)acetamido]-3-(1,2,3-triazol-5-ylthiomethyl)-3-cephem-4-carboxylic acid methanol solvate (15 g.) was slurried in 60 ml. of water. The pH was raised to 6.5 by addition of 4N NaOH and the mixture was passed through a 200 mesh screen. The reaction mixture was slurried at room temperature for 2 hours, the pH being maintained at 6.5 during this period. The crystals were removed by filtration, washed with 20 ml. of water and air dried at 37° C. for 24 hours to give 11.5 g. of title crystalline product. Bio assay = 924 mcg./mg. (average % H2 O, K.F. = 5.26).
7-[D-α-amino-α-(p-hydroxyphenyl)acetamido]-3-(1,2,3-triazol-5-ylthiomethyl)-3-cephem-4-carboxylic acid methanol solvate (200 mesh; 10.0 g.) substantially free of propylene glycol is slurried in 30-40 ml. of deionized water at ambient room temperature (20°-25° C.) to give a pH 3-4 aqueous suspension. NaOH (40%) is slowly added with rapid stirring to bring the pH to 6.3-6.7. The mixture is slurried at pH 6.3-6.7 for 2 hours. The crystals are removed by filtration, washed with water and air dried at room temperature for 24 hours to give a 75-80% weight yield of 950-1000 mcg./mg. crystals of 7-[D-α-amino-α-(p-hydroxyphenyl)acetamido]-3-(1,2,3-triazol-5-ylthiomethyl)-3-cephem-4-carboxylic acid dihydrate. […] H2 O, K.F. = 6.56.

NC(C(=O)NC1C(=O)N2C(C(=O)O)=C(CSc3c[nH]nn3)CSC12)c1ccc(O)cc1 [7-[D-α-amino-α-(p-hydroxyphenyl)acetamido]-3-(1,2,3-triazol-5-ylthiomethyl)-3-cephem-4-carboxylic acid propylene glycol solvate]
degraded at 720 h ([1]; 56° C., 1 month): < 10%
degraded at 24 h ([1]; 100° C., 24 hours): < 6%
degraded at 48 h ([1]; 100° C., 48 hours): < 12%

N[C@@H](C(=O)NC1C(=O)N2C(C(=O)O)=C(CSc3c[nH]nn3)CS[C@H]12)c1ccc(O)cc1 (stereo partly drawn) [7-[D-α-amino-α-(p-hydroxyphenyl)acetamido]-3-(1,2,3-triazol-5-ylthiomethyl)-3-cephem-4-carboxylic acid sesquihydrate]
Bio-assay ([2]; sesquihydrate): 924 µg/mg

N[C@@H](C(=O)NC1C(=O)N2C(C(=O)O)=C(CSc3cnn[nH]3)CS[C@H]12)c1ccc(O)cc1.O.O (stereo partly drawn) [7-[D-α-amino-α-(p-hydroxyphenyl)acetamido]-3-(1,2,3-triazol-5-ylthiomethyl)-3-cephem-4-carboxylic acid dihydrate]
Bio-assay [2]: 950 to 1000 µg/mg
